In patent US20140135310A1, “SULPHONAMIDE DERIVATIVES OF ALICYCLIC AMINES FOR THE TREATMENT OF CENTRAL NERVOUS SYSTEM DISEASES” (Adamed Sp. z o.o., priority 2011, published 2014):

What was measured:
5-HT7 receptor = target: T1, 5-HT7 receptor (Homo sapiens, UniProt P34969); test: Radioligand binding assay, serotoninergic 5-HT7 receptors; details: binding assay result in %, Table 5a;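 also: test compound at 1 µM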
T1 construct: purchased PerkinElmer
Procedure, shortened: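 Competition binding at human 5-HT7 receptors with a radioligand, detected by scintillation counting; non-specific binding was defined with excess unlabelled ligand. IC50 came from Hill-equation fits of competition curves, and Ki from Cheng–Prusoff using radioligand concentration and Scatchard-derived KD.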

[1] = system: α1 adrenergic receptors (rat cerebral cortex); test: Radioligand binding assay, adrenergic α1 receptors; details: test compound 1×10^−6 M
Procedure, shortened: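 Values derive from radioligand displacement, with non-specific binding defined by excess cold ligand and detection by scintillation. Hill-fit IC50s were converted to Ki via Cheng-Prusoff using Scatchard-derived Kd; percent inhibition of control specific binding also reported.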

[2] = target: T2, serotonin transporter (SERT) (Homo sapiens, UniProt P31645); test: Radioligand binding assay, serotonin transporter (SERT); details: binding assay, test compound 1×10^−6 M
T2 construct: expressed in transfected cells; host or cells: CHO cells
T2 sequence (P31645 whole entry): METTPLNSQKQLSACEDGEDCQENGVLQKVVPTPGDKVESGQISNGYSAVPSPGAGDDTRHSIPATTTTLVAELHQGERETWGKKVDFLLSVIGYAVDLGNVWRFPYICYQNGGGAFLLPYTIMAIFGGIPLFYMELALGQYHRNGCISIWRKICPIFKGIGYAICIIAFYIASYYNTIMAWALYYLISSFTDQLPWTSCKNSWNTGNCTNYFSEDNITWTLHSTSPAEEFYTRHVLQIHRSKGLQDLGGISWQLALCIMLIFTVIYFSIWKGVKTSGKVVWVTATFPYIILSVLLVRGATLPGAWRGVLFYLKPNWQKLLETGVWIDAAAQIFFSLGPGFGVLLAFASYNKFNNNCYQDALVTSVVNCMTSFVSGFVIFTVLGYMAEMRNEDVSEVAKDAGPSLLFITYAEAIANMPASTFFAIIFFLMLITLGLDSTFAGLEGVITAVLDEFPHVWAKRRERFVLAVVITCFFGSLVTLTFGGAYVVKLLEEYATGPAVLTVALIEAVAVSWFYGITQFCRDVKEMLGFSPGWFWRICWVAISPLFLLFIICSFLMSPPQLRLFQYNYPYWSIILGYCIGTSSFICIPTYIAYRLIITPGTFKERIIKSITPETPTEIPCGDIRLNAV
Procedure, shortened: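 Radioligand competition binding with scintillation detection; specific binding is total minus binding under excess unlabelled ligand. Reported as % of control specific binding or % inhibition; IC50 from Hill-equation non-linear regression of competition curves, and Ki via Cheng-Prusoff using radioligand concentration and Scatchard-derived KD.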

5-HT2A receptor = target: T3, 5-HT2A receptor (Homo sapiens, UniProt P28223); test: Radioligand binding assay, serotoninergic 5-HT2A receptors; details: binding assay result in %, Table 5a
T3 construct: purchased PerkinElmer
T3 sequence (P28223 whole entry): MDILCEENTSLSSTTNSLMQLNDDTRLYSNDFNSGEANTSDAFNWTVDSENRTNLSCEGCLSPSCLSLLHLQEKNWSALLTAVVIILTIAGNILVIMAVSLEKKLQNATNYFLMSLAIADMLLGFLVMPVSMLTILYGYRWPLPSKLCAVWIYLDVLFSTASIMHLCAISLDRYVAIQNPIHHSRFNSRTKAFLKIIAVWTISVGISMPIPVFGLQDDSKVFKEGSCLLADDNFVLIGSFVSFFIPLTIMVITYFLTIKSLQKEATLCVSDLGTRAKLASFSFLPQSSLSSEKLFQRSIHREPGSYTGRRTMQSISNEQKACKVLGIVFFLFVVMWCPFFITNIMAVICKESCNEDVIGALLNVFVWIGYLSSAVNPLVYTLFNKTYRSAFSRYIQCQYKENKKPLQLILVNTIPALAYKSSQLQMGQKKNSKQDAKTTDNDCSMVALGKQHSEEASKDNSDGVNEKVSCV
Procedure, shortened: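 Radioligand competition binding with scintillation counting; nonspecific binding defined by excess unlabelled ligand. Data as percent inhibition of control specific binding. IC50 by Hill-equation fit of competition curves; Ki by Cheng-Prusoff, with radioligand Kd from Scatchard plot.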

[3] = target: dopaminergic receptors D2 (Homo sapiens, UniProt P14416); test: Radioligand binding assay, dopaminergic D2 receptors; details: binding assay, test compound 1×10^−6 M
Chain of dopaminergic receptors D2 (P14416 whole entry): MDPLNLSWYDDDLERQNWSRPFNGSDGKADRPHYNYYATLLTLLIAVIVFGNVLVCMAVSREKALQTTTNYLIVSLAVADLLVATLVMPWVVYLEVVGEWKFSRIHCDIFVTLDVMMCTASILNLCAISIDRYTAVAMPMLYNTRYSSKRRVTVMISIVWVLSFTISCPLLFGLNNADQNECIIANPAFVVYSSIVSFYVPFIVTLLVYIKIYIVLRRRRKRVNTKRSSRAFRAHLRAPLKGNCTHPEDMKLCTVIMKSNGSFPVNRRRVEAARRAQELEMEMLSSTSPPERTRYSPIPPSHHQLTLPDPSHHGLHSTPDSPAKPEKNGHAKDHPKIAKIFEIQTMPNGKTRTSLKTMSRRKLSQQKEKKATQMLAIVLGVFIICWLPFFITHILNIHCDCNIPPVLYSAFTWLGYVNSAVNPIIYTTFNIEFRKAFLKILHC
Procedure, shortened: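 Total binding is counted by scintillation and non-specific binding subtracted using an excess of unlabelled ligand. IC50 comes from a Hill-equation fit with slope factor; Ki follows Cheng–Prusoff.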

5-HT6 receptor = target: T4, 5-HT6 receptor (Homo sapiens, UniProt P50406); test: Radioligand binding assay, serotoninergic 5-HT6 receptors; details: binding assay result in %, Table 5a;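 also: test compound at 1 µM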
T4 construct: purchased PerkinElmer
T4 sequence (P50406 whole entry): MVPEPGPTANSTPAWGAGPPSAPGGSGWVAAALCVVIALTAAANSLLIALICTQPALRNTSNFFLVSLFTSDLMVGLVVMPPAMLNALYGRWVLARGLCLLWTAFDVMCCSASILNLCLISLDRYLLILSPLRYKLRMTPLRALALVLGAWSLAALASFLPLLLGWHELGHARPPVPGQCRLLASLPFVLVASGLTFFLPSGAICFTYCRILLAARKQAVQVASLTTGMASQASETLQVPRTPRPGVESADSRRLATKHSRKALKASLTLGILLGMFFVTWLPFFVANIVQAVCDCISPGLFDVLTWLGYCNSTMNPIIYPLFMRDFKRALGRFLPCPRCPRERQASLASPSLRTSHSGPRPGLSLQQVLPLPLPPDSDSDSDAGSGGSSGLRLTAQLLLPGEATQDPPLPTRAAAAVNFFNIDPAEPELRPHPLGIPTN
Procedure, shortened: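 Values are Ki from Cheng–Prusoff, taking IC50 from Hill nonlinear regression of competition curves and KD from a Scatchard plot. Specific binding was total minus binding with excess unlabelled ligand. Radioligand displacement was detected by scintillation counting, and data were also reported as percent of control specific binding.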

[4] = target: T5, 5-HT1A receptor (rat hippocampus) (Rattus norvegicus, UniProt P19327); test: Radioligand binding assay, serotoninergic 5-HT1A receptors; details: binding assay result in %, Table 5a;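 also: test compound at 1 µM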
T5 construct: hippocampus; from tissue; host or cells: rat hippocampus
T5 sequence (P19327 1-422): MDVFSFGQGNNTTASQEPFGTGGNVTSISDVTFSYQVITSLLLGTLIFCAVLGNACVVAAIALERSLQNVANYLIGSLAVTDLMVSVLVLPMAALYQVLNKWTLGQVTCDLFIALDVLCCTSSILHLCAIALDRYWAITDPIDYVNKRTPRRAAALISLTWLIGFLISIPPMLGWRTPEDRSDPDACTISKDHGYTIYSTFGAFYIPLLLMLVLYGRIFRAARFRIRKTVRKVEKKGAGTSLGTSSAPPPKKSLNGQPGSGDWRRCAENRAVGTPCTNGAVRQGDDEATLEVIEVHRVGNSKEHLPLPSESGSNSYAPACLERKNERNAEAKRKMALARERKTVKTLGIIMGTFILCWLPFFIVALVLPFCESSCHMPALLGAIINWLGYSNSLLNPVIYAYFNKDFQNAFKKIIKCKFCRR

[5] = target: dopaminergic receptors D3 (Homo sapiens, UniProt P35462); test: Radioligand binding assay, dopaminergic D3 receptors; details: test compound 1×10^−6 M
Chain of dopaminergic receptors D3 (P35462 whole entry): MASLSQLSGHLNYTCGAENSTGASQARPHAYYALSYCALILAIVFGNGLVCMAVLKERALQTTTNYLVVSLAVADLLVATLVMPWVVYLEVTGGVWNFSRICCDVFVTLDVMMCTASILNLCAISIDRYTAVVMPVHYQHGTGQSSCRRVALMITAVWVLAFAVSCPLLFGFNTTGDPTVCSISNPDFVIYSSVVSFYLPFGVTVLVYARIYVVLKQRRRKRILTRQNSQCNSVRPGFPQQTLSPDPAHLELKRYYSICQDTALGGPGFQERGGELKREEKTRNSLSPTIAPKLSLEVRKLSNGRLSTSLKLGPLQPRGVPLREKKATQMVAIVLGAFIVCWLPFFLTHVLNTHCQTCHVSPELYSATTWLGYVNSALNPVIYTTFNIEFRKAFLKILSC
Procedure, shortened: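 Competition radioligand binding at human D2, D3 and D4.4 receptors, detected by scintillation counting; nonspecific binding defined with excess unlabelled ligand. Results as percent inhibition of control specific binding; IC50 by Hill-equation nonlinear regression; Ki via Cheng-Prusoff, with radioligand KD from Scatchard plot.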

T1 sequence (P34969 whole entry): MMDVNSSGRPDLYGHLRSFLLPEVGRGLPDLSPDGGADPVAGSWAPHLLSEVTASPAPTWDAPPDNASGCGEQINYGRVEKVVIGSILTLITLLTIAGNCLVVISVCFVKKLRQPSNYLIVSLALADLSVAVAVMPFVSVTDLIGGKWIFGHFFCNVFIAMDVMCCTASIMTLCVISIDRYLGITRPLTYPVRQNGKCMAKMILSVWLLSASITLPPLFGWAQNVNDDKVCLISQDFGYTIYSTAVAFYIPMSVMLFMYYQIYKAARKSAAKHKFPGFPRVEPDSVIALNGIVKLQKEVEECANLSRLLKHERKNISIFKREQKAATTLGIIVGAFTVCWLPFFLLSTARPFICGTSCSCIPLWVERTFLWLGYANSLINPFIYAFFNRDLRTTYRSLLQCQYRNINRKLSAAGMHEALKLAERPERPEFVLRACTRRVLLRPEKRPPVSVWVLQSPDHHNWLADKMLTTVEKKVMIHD

O=S(=O)(NCC1CN(CCOc2cccc3c2OCCO3)C1)c1ccc(-c2ccccc2)cc1 [Compound 178, N-[[1-[2-(2,3-Dihydro-1,4-benzodioxin-5-yloxy)ethyl]azetidin-3-yl]methyl]-4-phenyl-benzenesulphonamide]
inhibition at 1 µM (5-HT7 receptor): 89%
α1 [%] [1]: 20%
inhibition at 1 µM [2]: -6%
inhibition at 1 µM (5-HT2A receptor): 73%
inhibition at 1 µM [3]: 8%
inhibition at 1 µM (5-HT6 receptor): 21%
inhibition at 1 µM [4]: 96%
inhibition at 1 µM [5]: 25%

Cc1cccc(S(=O)(=O)NC2CCN(CCOc3cccc4c3OCCO4)CC2)c1 [Compound 118, N-[1-[2-(2,3-Dihydro-1,4-benzodioxan-8-yloxy)ethyl]-4-piperidine]-3-methyl-benzenesulphonamide]
5-HT7 [%] (5-HT7 receptor): 99%
α1 [%] [1]: 72%
SERT [%] [2]: 41%
5-HT2A [%] (5-HT2A receptor): 83%
D2 [%] [3]: 32%
5-HT6 [%] (5-HT6 receptor): 51%
5-HT1A [%] [4]: 85%
D3 [%] [5]: 20%

N-[1-[3-(6-Fluoro-1,2-benzoxazol-3-yl)propyl]pyrrolidin-3-yl]-1,3-benzothiazole-4-sulphonamide [Compound 31]
5-HT7 [%] (5-HT7 receptor): 89%
α1 [%] [1]: 100%
SERT [%] [2]: 36%
5-HT2A [%] (5-HT2A receptor): 84%
D2 [%] [3]: 87%
5-HT6 [%] (5-HT6 receptor): 76%
5-HT1A [%] [4]: 58%
D3 [%] [5]: 27%

Cc1ccc(S(=O)(=O)NCC2CCN(CCOc3cccc4c3OCCO4)C2)cc1 (centres unmarked) [Compound 291, N-[[1-[2-(2,3-Dihydro-1,4-benzodioxin-5-yloxy)ethyl]pyrrolidin-3-yl]methyl]-4-methyl-benzenesulphonamide]
inhibition at 1 µM (5-HT7 receptor): 80%
α1 [%] [1]: 66%
inhibition at 1 µM [2]: 66%
inhibition at 1 µM (5-HT2A receptor): 63%
inhibition at 1 µM [3]: 29%
inhibition at 1 µM (5-HT6 receptor): 19%
inhibition at 1 µM [4]: 94%
inhibition at 1 µM [5]: 33%

O=S(=O)(NCC1CN(CCOc2cccc3c2OCCO3)C1)c1ccc(F)cc1 [Compound 182, N-[[1-[2-(2,3-Dihydro-1,4-benzodioxin-5-yloxy)ethyl]azetidin-3-yl]methyl]-4-fluoro-benzenesulphonamide]
inhibition at 1 µM (5-HT7 receptor): 95%
α1 [%] [1]: 78%
inhibition at 1 µM [2]: -7%
inhibition at 1 µM (5-HT2A receptor): 61%
inhibition at 1 µM [3]: 33%
inhibition at 1 µM (5-HT6 receptor): 31%
inhibition at 1 µM [4]: 63%
inhibition at 1 µM [5]: 45%

O=S(=O)(NC1CCN(CCOc2cccc3[nH]ccc23)CC1)c1cccc2ccccc12 [Compound 60, N-[1-[2-(1H-Indol-4-yloxy)ethyl]-4-piperidine]naphthalene-1-sulphonamide]
5-HT7 [%] (5-HT7 receptor): 96%
α1 [%] [1]: 87%
SERT [%] [2]: 21%
5-HT2A [%] (5-HT2A receptor): 76%
D2 [%] [3]: 41%
5-HT6 [%] (5-HT6 receptor): 69%
5-HT1A [%] [4]: 85%
D3 [%] [5]: 102%

O=S(=O)(NCC1CCN(CCOc2cccc3ccccc23)C1)c1csc2ccccc12 (centres unmarked) [Compound 276, N-[[1-[2-(1-Naphthyloxy)ethyl]pyrrolidin-3-yl]methyl]benzothiophene-3-sulphonamide]
inhibition at 1 µM (5-HT7 receptor): 82%
α1 [%] [1]: 16%
inhibition at 1 µM [2]: 84%
inhibition at 1 µM (5-HT2A receptor): 92%
inhibition at 1 µM [3]: 41%
inhibition at 1 µM (5-HT6 receptor): 84%
inhibition at 1 µM [4]: 81%
inhibition at 1 µM [5]: 91%

O=S(=O)(NC1CCN(CCCc2noc3cc(F)ccc23)C1)c1cnc2ccccn12 (centres unmarked) [Compound 30, N-[1-[3-(6-Fluoro-1,2-benzoxazol-3-yl)propyl]pyrrolidin-3-yl]imidazo-[1,2-a]pyridine-3-sulphonamide]
inhibition at 1 µM (5-HT7 receptor): 82%
α1 [%] [1]: 84%
inhibition at 1 µM [2]: 36%
inhibition at 1 µM (5-HT2A receptor): 95%
inhibition at 1 µM [3]: 62%
inhibition at 1 µM (5-HT6 receptor): 77%
inhibition at 1 µM [4]: 5%
inhibition at 1 µM [5]: -2%

O=S(=O)(NCC1CCN(CCOc2cccc3ccccc23)C1)c1ccc(F)c(Cl)c1 (centres unmarked) [Compound 277, 3-Chloro-4-fluoro-N-[[1-[2-(1-naphthyloxy)ethyl]pyrrolidin-3-yl]methyl]benzenesulphonamide]
inhibition at 1 µM (5-HT7 receptor): 108%
α1 [%] [1]: 21%
inhibition at 1 µM [2]: 68%
inhibition at 1 µM (5-HT2A receptor): 85%
inhibition at 1 µM [3]: 34%
inhibition at 1 µM (5-HT6 receptor): 93%
inhibition at 1 µM [4]: 85%
inhibition at 1 µM [5]: 90%

O=S(=O)(NCC1CN(CCOc2cccc3c2OCCO3)C1)c1ccsc1 [Compound 191, N-[[1-[2-(2,3-Dihydro-1,4-benzodioxin-5-yloxy)ethyl]azetidin-3-yl]methyl]-thiophene-3-sulphonamide]
inhibition at 1 µM (5-HT7 receptor): 93%
α1 [%] [1]: 54%
inhibition at 1 µM [2]: 32%
inhibition at 1 µM (5-HT2A receptor): 42%
inhibition at 1 µM [3]: 7%
inhibition at 1 µM (5-HT6 receptor): 5%
inhibition at 1 µM [4]: 98%
inhibition at 1 µM [5]: 25%

Cn1ccc2cc(S(=O)(=O)NCC3CN(CCCc4noc5cc(F)ccc45)C3)ccc21 [Compound 150, N-[[1-[3-(6-Fluoro-1,2-benzoxazol-3-yl)propyl]azetidin-3-yl]methyl]-1-methyl-indole-5-sulphonamide]
inhibition at 1 µM (5-HT7 receptor): 84%
α1 [%] [1]: 98%
inhibition at 1 µM [2]: 12%
inhibition at 1 µM (5-HT2A receptor): 85%
inhibition at 1 µM [3]: 53%
inhibition at 1 µM (5-HT6 receptor): 65%
inhibition at 1 µM [4]: -9%
inhibition at 1 µM [5]: 60%

O=S(=O)(NCC1CCN(CCOc2cccc3c2OCCO3)C1)c1ccc(Cl)c(Cl)c1 (centres unmarked) [Compound 301, 3,4-Dichloro-N-[[1-[2-(2,3-dihydro-1,4-benzodioxin-5-yloxy)ethyl]-pyrrolidin-3-yl]methyl]benzenesulphonamide]
inhibition at 1 µM (5-HT7 receptor): 98%
α1 [%] [1]: 46%
inhibition at 1 µM [2]: 38%
inhibition at 1 µM (5-HT2A receptor): 81%
inhibition at 1 µM [3]: -22%
inhibition at 1 µM (5-HT6 receptor): 61%
inhibition at 1 µM [4]: 96%
inhibition at 1 µM [5]: 34%

O=S(=O)(NC1CCN(CCCc2noc3cc(F)ccc23)C1)c1ccc(-c2ccccc2)cc1 (centres unmarked) [Compound 195, N-[1-[3-(6-Fluoro-1,2-benzoxazol-3-yl)propyl]pyrrolidin-3-yl]-4-phenyl-benzenesulphonamide]
inhibition at 1 µM (5-HT7 receptor): 86%
α1 [%] [1]: 79%
inhibition at 1 µM [2]: 7%
inhibition at 1 µM (5-HT2A receptor): 101%
inhibition at 1 µM [3]: 93%
inhibition at 1 µM (5-HT6 receptor): 86%
inhibition at 1 µM [4]: 47%
inhibition at 1 µM [5]: 82%

O=S(=O)(NC1CCN(CCOc2cccc3ccccc23)CC1)c1cccc(O)c1 [Compound 119, 3-Hydroxy-N-[1-[2-(1-naphthyloxy)ethyl]-4-piperidine]benzene-sulphonamide]
5-HT7 [%] (5-HT7 receptor): 85%
α1 [%] [1]: 78%
SERT [%] [2]: 10%
5-HT2A [%] (5-HT2A receptor): 69%
D2 [%] [3]: 79%
5-HT6 [%] (5-HT6 receptor): 57%
5-HT1A [%] [4]: 89%
D3 [%] [5]: 93%

O=S(=O)(NCC1CN(CCOc2cccc3ccccc23)C1)c1csc2ccccc12 [Compound 171, N-[[1-[2-(1-Naphthyloxy)ethyl]azetidin-3-yl]methyl]benzothiophene-3-sulphonamide]
inhibition at 1 µM (5-HT7 receptor): 94%
α1 [%] [1]: 50%
inhibition at 1 µM [2]: 44%
inhibition at 1 µM (5-HT2A receptor): 101%
inhibition at 1 µM [3]: 72%
inhibition at 1 µM (5-HT6 receptor): 96%
inhibition at 1 µM [4]: 92%
inhibition at 1 µM [5]: 99%

Cc1c(S(=O)(=O)NCC2CCN(CCOc3cccc4ccccc34)C2)sc2ccc(Cl)cc12 (centres unmarked) [Compound 272, 5-Chloro-3-methyl-N-[[1-[2-(1-naphthyloxy)ethyl]pyrrolidin-3-yl]methyl]benzothiophene-2-sulphonamide]
inhibition at 1 µM (5-HT7 receptor): 88%
α1 [%] [1]: −7%
inhibition at 1 µM [2]: 20%
inhibition at 1 µM (5-HT2A receptor): 82%
inhibition at 1 µM [3]: 40%
inhibition at 1 µM (5-HT6 receptor): 67%
inhibition at 1 µM [4]: 63%
inhibition at 1 µM [5]: 88%
